# Laboratory results: patent US20120065187A1 (ALCON RESEARCH, LTD, priority 2008, published 2012)
# Experiments:
# human H4 = molecular target: T1, human H4 (Homo sapiens, UniProt Q9H3N8); assay: In vitro histamine receptor cell-based assay (aequorin bioluminescence), H4 antagonism; conditions: CHO-K1 cells expressing human H4, aequorin and Gα16; histamine at EC80; read-out: H4 Antagonist EC50
# T1 construct: host or cells: CHO-K1
# How it was run: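 Antagonism read as loss of aequorin luminescence after histamine (EC80 final) addition, following 15 min room-temperature compound pretreatment of coelenterazine-h-loaded (5 μM) CHO-K1 cells co-expressing human H4 and Gα16. Efficacy given relative to 10 μM JNJ7777120; agonism excluded in separate no-histamine runs.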
# [1] = tested on: Hartley VAF outbred guinea pigs; assay: Allergic conjunctivitis in passively sensitized guinea pigs (conjunctival EPO activity); format: in vivo; set-up: key: +: a 0.01% bid dose was statistically equivalent to dexamethasone with respect to reduction of EPO activity; −: the compound was statistically inferior to dexamethasone and not different than vehicle; conditions: 0.01% bid topical, 1 hour prior to and 8 hours after ovalbumin challenge; reduction of conjunctival EPO activity vs dexamethasone
# Description: (§1) Male Hartley VAF outbred guinea pigs were passively sensitized to ovalbumin by a single OD subconjunctival injection of undiluted guinea pig anti-ovalbumin antiserum 24 hours before OD topical challenge with 500 μg ovalbumin in saline. Control animals were injected with saline only and challenged with ovalbumin. To determine acute phase drug efficacy, 30 min after challenge animals were clinically scored by a masked observer for severity of signs of conjunctivitis based on a standard scale. Test compounds were administered topically 1 hour prior to challenge (QD protocol), or 1 hour prior to challenge and again 8 hours after challenge (BID protocol). Twenty-four hours after challenge, animals were euthanized and conjunctivae were harvested for determination of tissue eosinophil peroxidase (EPO) concentration as a marker of allergic inflammation. Homogenates of freshly collected tissues were prepared by shaking the tissues in 2 mL round-bottom tubes containing 0.5 mL of homogenization buffer (50 mM Tris HCl, pH 8.0, 6 mM KBr) and one 5-mm stainless steel bead on a Qiagen TissueLyser at 30 Hz for 5 min. Homogenates were frozen and thawed once, then centrifuged at 10,000 rpm for 5 min. EPO activity in supernatants was measured by reacting diluted homogenates with a solution of 6 mM o-phenylenediamine substrate and 8.8 mM H2O2 in homogenization buffer for 3 min. The reaction was stopped with 4M H2SO4 and absorbances were measured at […] on a spectrophotometric plate reader. Total EPO in samples was calculated from a standard curve of recombinant human EPO in each assay. EPO activity was normalized to total protein concentration (Pierce BCA assay) in supernatants. Background EPO activity was determined from the unsensitized, antigen-challenged control group. Percent inhibition was calculated from the sensitized, antigen-challenged, vehicle-treated control group in each experiment. Ovalbumin-injected animals dosed topically with 0.1% w/v dexamethasone (dex) served as positive control. Groups were compared by ANOVA with Dunnett's or Tukey's post-hoc tests where appropriate with significance assigned at the 95% confidence level.
# (§2) The table below summarizes the results.
# [2] = tested on: Hartley VAF outbred guinea pigs; assay: as above; format: in vivo; set-up: key: +: a ≦0.1% qd dose was statistically equivalent to dexamethasone with respect to reduction of EPO activity; −: the compound was statistically inferior to dexamethasone and not different than vehicle; conditions: ≦0.1% qd topical, 1 hour prior to ovalbumin challenge; reduction of conjunctival EPO activity vs dexamethasone
# Description: as §1, §2
# human H1 = molecular target: T2, human H1 (Homo sapiens, UniProt P35367); assay: In vitro histamine receptor cell-based assay (aequorin bioluminescence), H1 antagonism; conditions: CHO-K1 cells expressing human H1 and aequorin; histamine at EC80; read-out: H1 Antagonist EC50
# T2 construct: host or cells: CHO-K1
# How it was run: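 Antagonism read as drop in aequorin luminescence after histamine challenge at a predetermined EC80, following 15 min compound pretreatment at room temperature. Cells: CHO-K1 carrying human H1, or H4 with Gα16; signal as AUC or amplitude, normalised to 10 μM diphenhydramine (H1) or JNJ7777120 (H4).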
# CD-1 mice = assay: Model of scratching induced by histamine in CD-1 mice (assessment of H4 antagonism); format: in vivo; conditions: 30 mg/kg oral gavage 30 min before i.d. histamine; bouts counted for 20 minutes; female CD-1 mice
# Description: Assessment of H4 Antagonism—Model of Scratching Induced by Histamine in CD-1 mice.
# Female CD-1 mice (Charles River, Hollister, Calif.), approximately 10 weeks old were housed under controlled conditions (12 h light: 12 h dark, 21° C.) and allowed ad libitum access to food (Purina LabDiet 5P14) and water. Animals were deprived of access to food and water for 1 hour during the experimental itch protocol. All studies were performed under the guidelines of the Institutional Animal Care and Use Committee of Kalypsys, Inc.
# At least 24 hours prior to study initiation, the hair on the rostral dorsum of the animal was clipped to clear a location for intradermal (i.d.) injection of pruritogen (histamine, dissolved in Dulbecco's PBS [pH 7.4] at a concentration of 10 μmol per 20 μL). Animals were dosed by oral gavage with vehicle (9/0.5/0.5/90 PEG-400/Tween-80/PVP-K30/1% carboxymethylcellulose in water) or test compounds (formulated as suspensions in vehicle) at 30 mg/kg in 200 μL by means of a 20 gauge 1.5″ feeding needle affixed to a 1 mL syringe. There were 8 mice per study group. Thirty minutes after oral dosing, animals were injected i.d. with 20 μL of histamine. Immediately afterward animals were placed into individual sections of a standard acrylic cage for observation, which was recorded digitally for a 20 minute period by video cameras (Panasonic SDR-S70/PC) for later review.
# Quantitation of induced itch was measured as described previously (Bell, J. K. et al., British Journal of Pharmacology, 142:374-380, 2004) by counting the number of scratching bouts per animal in the 20 minute period after i.d. injection. A scratching bout was defined as three rapid scratch movements of the hind paw in the area of the injection site. Activity with the fore paws was deemed to be grooming and not scratching, and thus was not counted. All data were analyzed using GraphPad Prism (San Diego, Calif.) software, and reported as mean percentage reduction in scratching bouts versus vehicle control. The significance of antagonist effect on agonist-induced itching was analyzed using the nonparametric Mann-Whitney test with P values <0.05 being designated as statistically significant.
# Data reported as NT refers to the example having been not tested. It is expected that these compounds when tested will be active and will have utility similar to those that have been tested. In Table 2 below, entries with superscript “1” are statistically significant according to the criteria outlined in the protocol above. Entries with superscript “2” are examples that have been tested on two separate days and the results reported below are the mean of the two experiments
# T2 sequence (P35367 whole entry): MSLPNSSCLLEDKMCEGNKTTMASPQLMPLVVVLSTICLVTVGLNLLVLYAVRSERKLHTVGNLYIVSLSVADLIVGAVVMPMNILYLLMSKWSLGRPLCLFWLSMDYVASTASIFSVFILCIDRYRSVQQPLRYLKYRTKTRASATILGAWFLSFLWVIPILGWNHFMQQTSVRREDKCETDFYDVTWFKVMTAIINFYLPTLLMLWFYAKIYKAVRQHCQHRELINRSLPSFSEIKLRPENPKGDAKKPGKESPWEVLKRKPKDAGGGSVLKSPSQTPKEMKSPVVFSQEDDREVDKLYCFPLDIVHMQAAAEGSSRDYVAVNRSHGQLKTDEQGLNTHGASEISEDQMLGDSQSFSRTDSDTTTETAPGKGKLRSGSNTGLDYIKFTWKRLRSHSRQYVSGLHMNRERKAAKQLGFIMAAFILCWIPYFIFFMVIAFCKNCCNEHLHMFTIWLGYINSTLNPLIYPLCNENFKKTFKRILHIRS
SMILES,EC50 (human H4) [µM],EC50 (human H1) [µM],BID activity [1],QD activity [2],Scratching Bouts (% change from vehicle control) (CD-1 mice)
"Clc1ccc2nc(N3CCNCC3)c3nnnn3c2c1 [Example 19, 8-Chloro-4-(piperazin-1-yl)tetrazolo[1,5-a]quinoxaline]",< 10,> 10,+,+,
"CN1CCN(c2nc3ccc(Cl)cc3n3nnnc23)CC1 [Example 20, 8-Chloro-4-(4-methylpiperazin-1-yl)tetrazolo[1,5-a]quinoxaline]",< 10,> 10,−,,−1%
"FC(F)(F)c1ccc2nc(N3CCNCC3)c3nncn3c2c1 [Example 24, 4-(piperazin-1-yl)-8-(trifluoromethyl)-[1,2,4]triazolo[4,3-a]quinoxaline]",< 10,> 10,,+,
"Cl.FC(F)(F)c1ccc2nc(N3CCNCC3)c3nnnn3c2c1 [Example 29, 4-(piperazin-1-yl)-8-(trifluoromethyl)tetrazolo[1,5-a]quinoxaline hydrochloride]",< 10,> 10,+,+,
"FC(F)(F)c1cc2c(cc1Cl)nc(N1CCNCC1)c1nncn12 [Example 45, 7-Chloro-4-(piperazin-1-yl)-8-(trifluoromethyl)-[1,2,4]triazolo[4,3-a]quinoxaline]",< 10,> 10,,+,
"Cc1nc2c3cc(C(F)(F)F)ccc3nc(N3CCN(C)CC3)n2n1 [Example 103, 2-Methyl-5-(4-methylpiperazin-1-yl)-9-(trifluoromethyl)-[1,2,4]triazolo[1,5-c]quinazoline]",< 10,> 10,,+,−37%
"Cc1nc2c3cc(Cl)ccc3nc(N3CCNCC3)n2n1 [Example 112, 9-Chloro-2-methyl-5-(piperazin-1-yl)-[1,2,4]triazolo[1,5-c]quinazoline]",< 10,> 10,,,−73^1%
"Cc1nc2c3cc(Cl)ccc3nc(N3CCN(C)CC3)n2n1 [Example 113, 9-chloro-2-methyl-5-(4-methylpiperazin-1-yl)-[1,2,4]triazolo[1,5-c]quinazoline]",< 10,> 10,−,,"−66^1,2%"

# The next lines start with results.
EC50 (human H4) [µM],EC50 (human H1) [µM],SMILES,BID activity [1],QD activity [2],Scratching Bouts (% change from vehicle control) (CD-1 mice)
< 10,> 10,"Cc1nc2c3c(F)c(C(F)(F)F)ccc3nc(N3CCN(C)CC3)n2n1.Cl [Example 126, 10-fluoro-2-methyl-5-(4-methylpiperazin-1-yl)-9-(trifluoromethyl)-[1,2,4]triazolo[1,5-c]quinazoline hydrochloride]",,+,
< 10,> 10,"Cc1nc2c3cc(C(F)(F)F)cc(F)c3nc(N3CCN(C)CC3)n2n1.Cl [Example 127, 7-fluoro-2-methyl-5-(4-methylpiperazin-1-yl)-9-(trifluoromethyl)-[1,2,4]triazolo[1,5-c]quinazoline hydrochloride]",,+,
< 10,> 10,"CN1CCN(c2nc3ccc(Cl)cc3c3c[nH]nc23)CC1 [Example 152, 8-Chloro-4-(4-methylpiperazin-1-yl)-2H-pyrazolo[3,4-c]quinoline]",−,,−13%
< 10,< 10,"Clc1ccc2nc(N3CCNCC3)c3n[nH]cc3c2c1 [Example 153, 8-Chloro-4-(piperazin-1-yl)-2H-pyrazolo[3,4-c]quinoline]",−,,
< 10,> 10,"CN1CCN(c2nc3ccc(Cl)cc3c3[nH]cnc23)CC1 [Example 160, 8-Chloro-4-(4-methylpiperazin-1-yl)-1H-imidazo[4,5-c]quinoline]",−,,
< 10,< 10,"Clc1ccc2nc(N3CCNCC3)c3nc[nH]c3c2c1 [Example 161, 8-Chloro-4-(piperazin-1-yl)-1H-imidazo[4,5-c]quinoline]",+,,
< 10,< 10,"Cc1nc2c(N3CCN(C)CC3)nc3ccc(Cl)cc3n2n1 [Example 165, 8-chloro-2-methyl-4-(4-methylpiperazin-1-yl)-[1,2,4]triazolo[1,5-a]quinoxaline]",+,+,
< 10,> 10,"CN1CCN(c2nc3ccc(Cl)cc3c3conc23)CC1 [Example 166, 8-Chloro-4-(4-methylpiperazin-1-yl)isoxazolo[3,4-c]quinoline]",+,+,
